Results as given in article PMC5372569, “A New Oleanolic Acid Derivative against CCl4-Induced Hepatic Fibrosis in Rats” (International Journal of Molecular Sciences, 2017).
Where “and” joins values, the source holds several entries; their conditions need not be identical. Identical values can stand only once.

Legend:
[1] = test system: CCl4-induced liver fibrosis in rats; assay: Histological assessment (H&E) of livers in CCl4-induced liver fibrosis; format: in vivo; settings: nine weeks
Protocol: (§1) After a two-week acclimation period, 52 rats were randomly divided into five groups (each group approximately consisted of ten rats). (1) Normal group: rats were fed with regular diet and distilled water and were injected intraperitoneally with olive oil (2 mL/kg body weight per day, i.p. twice per week) for nine weeks; (2) Model group: rats were feeding with the same quantity as the normal group and were injected with 40% CCl4/olive oil (2 mL/kg body weight, twice per week) for nine weeks to induce liver fibrosis; (3) Low-dose group: rats were fed with the same quantity as the normal group and were administered intraperitoneal injections with 40% CCl4/olive oil (2 mL/kg body weight, twice per week) and with a low dose (14 mg/kg body weight, once per day) Oxy-Di-OA treatment for nine weeks; (4) High-dose group: rats were fed with the same quantity as the normal group and were treated with 40% CCl4/olive oil (2 mL/kg body weight twice per week) and with a high dose (28 mg/kg body weight, once per day) Oxy-Di-OA treatment for nine weeks; (5) Positive control group: rats were fed with the same quantity as the normal group and were administered 40% CCl4/olive oil (2 mL/kg body weight, twice per week) and with bifendate (10.5 mg/kg body weight, once per day) for nine weeks.
(§2) At 48 h after the final injection of CCl4, all rats were anaesthetized with chloral hydrate, and the blood samples were collected from the aorta abdominalis. The serum samples were obtained by centrifugation at 3000 rpm for 15 min to obtain the supernatant and were kept frozen at −80 °C until biochemical analysis. Livers and spleens were immediately removed, rinsed in ice-cold saline, and weighed. The data were used for calculating liver and spleen indices. Then a portion of each liver was fixed in 4% buffered formaldehyde, embedded in paraffin blocks, and stained with hematoxylin-eosin (H&E) for histological and biochemical analyses. The rest of the tissues were stored at −80 °C until required.

[2] = test system: TGF-β1; assay: Immunohistochemical staining of TGF-β1 in liver tissue, CCl4-induced liver fibrosis; format: in vivo; settings: nine weeks, CCl4 rats
Protocol: as §1
Immunostaining was conducted as paraffin-embedded liver tissue sections of 5 µm thickness to determine the expression and distribution of TGF-β1 in the liver tissue of rats. Tissues were treated with 3% H2O2 in distilled water for 10 min to block endogenous peroxidase activity followed by another wash, and then blocked with 5% BSA blocking buffer for 20 min. Then, after endogenous peroxidase blockage, the sections were incubated with TGF-β1 primary antibody (1:50 dilution) at 4 °C overnight. The next day, they were washed three times with PBS (phosphate-buffered saline) and then incubated with HRP-labelled goat-anti-rabbit secondary antibodies at 37 °C for 30 min. […] The expression of TGF-β1 in liver tissues was analyzed under a light microscope (Olympus, Tokyo, Japan).

[3] = test system: CCl4-induced liver fibrosis in rats; assay: Serum ALT and AST in CCl4-induced liver fibrosis; format: in vivo; settings: mean ± SD
Protocol: as §1, §2
According to the corresponding manufacturer’s protocols, plasma samples were prepared after finishing animal experiments and determined using ALT and AST diagnostic kits. The ALT and AST enzyme activities were measured by the third affiliated hospital of Beijing University of Chinese Medicine (Beijing, China).

[4] = test system: CCl4-induced liver fibrosis in rats; assay: Liver and spleen indices in CCl4-induced liver fibrosis; format: in vivo; settings: mean ± SD
Protocol: as §1, §2
We used the percentage of the body weight to represent relative weights of the liver and spleen, respectively. The indices of liver and spleen were expressed as Wl/Wm and Ws/Wm, respectively. The Wl and Ws represented the average liver and spleen weight of each group, respectively, and Wm was the average rat body weight of each group.

[5] = Acute toxicity assay via intraperitoneal injection; format: in vivo, Kunming mice; settings: male, Kunming, mouse, in vivo, ip, mice, Käber assessment
Protocol: (§3) According to previous studies, Oxy-Di-OA was further investigated for its approximate LD50 and 95% confidence interval (CIs) value in mice. Male Kunming mice, weighing 20 ± 2 g were randomly divided into eleven groups of six individuals matched by weight and size. The mice had fasted for 12 h, but water was allowed ad libitum before the acute toxicity experiments.
(§4) The maximum suspended dose (900 mg/kg) of Oxy-Di-OA was prepared in bean oil solution. One group of mice was injected intraperitoneally with bean oil as a normal control. Then the other five groups of mice were given intraperitoneal injections of Oxy-Di-OA in doses of 178, 422, 600, 750, and 900 mg/kg, respectively. The mice were observed continuously for 1 h after such treatment and then intermittently for 4 h, and thereafter over a period of 24 h. The mice were further observed for up to seven days following treatment for any situations of poisoning and deaths and the latency of death. Some abnormal behaviors were recorded.
(§5) The acute toxicity assay via intraperitoneal injection was evaluated by LD50 and 95% CIs which were calculated by Käber assessment.

[6] = test system: mice; assay: Acute toxicity assay via intraperitoneal injection; format: in vivo, Kunming mice
Protocol: as §3, §4, §5

[7] = Acute toxicity assay via gavage; settings: male, Kunming, mouse, in vivo; mice, gavage (oral administration), doses up to 2000 mg/kg
Protocol: as §3
One group of mice was orally administered bean oil as a normal control. Then the other four groups of mice were given gavage of Oxy-Di-OA in doses of 200, 500, 1000, and 2000 mg/kg, respectively. The mice were observed continuously for 1 h after such treatment and then intermittently for 4 h, and thereafter over a period of 24 h. The mice were further observed for up to seven days following treatment for any signs of toxicity, death, and the latency of death. Abnormal symptoms were recorded immediately.
The acute toxicity test via gavage was evaluated by LD50.

[8] = Pharmacokinetic study after single-dose oral administration (HPLC-UV); format: in vivo, SD rats; settings: rats
Protocol: The LC system is made up of an Agilent 1100 HPLC system (Agilent Corporation, USA) coupled with a reverse-phase Agilent TC-C18 analytical column (4.6 mm × 250 mm, 5 µm particle size). The column temperature set at 25 °C. The column used during the pharmacokinetic assay was eluted at a flow rate of 1 mL/min, and the solvent consisted of 98% methanol and 2% aqueous solution. The detection wavelength was 278 nm and the injection volume was 10 μL. Healthy SD rats had no access to food until 12 h after dose administration, while water was free to access throughout the experiments. To determine the drug concentrations and to calculate the pharmacokinetic parameters, blood was obtained from the ophthalmic vein and collected with heparinized microcentrifuge tubes. The plasma was separated by centrifuging the blood samples at 4000 rpm for 15 min. Plasma stored in a freezer at −20 °C was thawed at 4 °C before treatment. After that, 15 μL of IS (50.4 μg/mL) working solution was added to such a plasma sample (200 μL), followed by vortex-mixing for 1 min to obtain the mixture. Then we added 600 μL acetonitrile to the mixture and vortexed for 5 min. After that, the mixture was centrifuged at 12,000 rpm for 5 min at 4 °C. […] The residue was then reconstituted in 100 μL methanol, and stirred and vortexed for 1 min. The solution was centrifuged at 12,000 rpm for 5 min to obtain the supernatant. Finally, 10 μL of supernatant was injected into the HPLC system for further analysis. Oxy-Di-OA was dissolved in normal saline before using. Before administration of drug, six SD rats had no access to food overnight but water was allowed free access. A single dose (500 mg/kg) of Oxy-Di-OA solution was administered orally to rats. After that, the blood samples were collected with heparinized microcentrifuge tubes at 1, 2, 6, 8, 10, 12, 14, 16 and 20 h. Plasma was separated by centrifugation (4000 rpm, 10 min, and 15 °C) and kept at −20 °C until necessary.

[9] = Stability of Oxy-Di-OA in rat plasma and processed samples; format: physicochemical
Protocol: The stability of Oxy-Di-OA was investigated by analyzing the QC samples over three levels under different conditions, including −20 °C for 10 and 20 days (long-term stability), and room temperature for one day (short-term stability). In addition, the concentration of Oxy-Di-OA would be detected in the above samples to compare with the initial value in order to determine whether it has changed or not.

[10] = test system: HBV (Hepatitis B Virus); design: method as in PMID 27023498; settings: previous studies; cited from earlier work
[11] = bifendate 10.5 mg/kg once per day
[12] = high-dose group 28 mg/kg once per day
[13] = low-dose group 14 mg/kg once per day
[14] = dose 28 mg/kg (high dose), 28 mg/kg
[15] = SD, rat, plasma, single oral dose 500 mg/kg, n = 6
[16] = single oral dose 500 mg/kg, n = 6

Q: For `COC(=O)c1cc(OC)c2c(c1-c1c(C(=O)OC)cc(OC)c3c1OCO3)OCO2` [Bifendate, bifendate, reference compound], which “histological examination of rat livers (H&E)” value [1, 11] is on record?
A: notable alleviation in abnormal areas

Q: What about the “expression of TGF-β1 (immunohistochemical staining)” value [2, 11] of the same compound?
A: a low expression of TGF-β1

Q: And the ALT ([3]; dose 10.5 mg/kg)?
A: 54.54 ± 21.40 U/L

Q: What about the AST ([3]; dose 10.5 mg/kg) of the same compound?
A: 122.56 ± 39.18 U/L

Q: And the “Liver Index” value ([4]; dose 10.5 mg/kg)?
A: 3.57 ± 0.34 %

Q: What about the “Spleen Index” value ([4]; dose 10.5 mg/kg) of the same compound?
A: 0.24 ± 0.04 %

Q: What does the source list for `CC1(C)CCC2(C(=O)O)CC[C@]3(C)C(=CC=C4[C@@]5(C)CCC(=O)C(C)(C)[C@@H]5CC[C@]43C)C2C1` (stereo partly shown) [Oxy-Di-OA, 3-oxours-oleana-9(11), 12-dien-28-oic acid]?
A: histological examination of rat livers (H&E) [1, 12]: marked regression and alleviation in the abnormal areas; histological examination of rat livers (H&E) [1, 13]: moderate regression of morphological changes; expression of TGF-β1 (immunohistochemical staining) [2, 12]: a lower expression of TGF-β1 compared to model group; expression of TGF-β1 (immunohistochemical staining) [2, 13]: a lower expression of TGF-β1 compared to model group; ALT ([3]; dose 14 mg/kg): 77.58 ± 39.58 U/L; AST ([3]; dose 14 mg/kg): 122.00 ± 52.19 U/L; ALT ([3]; dose 28 mg/kg): 67.06 ± 51.59 U/L; AST ([3]; dose 28 mg/kg): 141.89 ± 71.57 U/L; Liver Index ([4]; dose 14 mg/kg): 3.46 ± 0.38 %; Spleen Index ([4]; dose 14 mg/kg): 0.24 ± 0.06 %; Liver Index [4, 14]: 3.15% ± 0.36% and 3.15 ± 0.36 *^,# %; Spleen Index [4, 14]: 0.26% ± 0.05% and 0.26 ± 0.05 %; LD50 at 7 days ([5]; read-out: 95% CIs of LD50): 640 to 799 mg/kg; LD50 at 7 days ([5]; read-out: LD50): 715 mg/kg; dose harmless for further in vivo study [6]: 600 mg/kg; Death Rate ([6]; 178 mg/kg): 0%; Death Rate ([6]; 422 mg/kg): 0%; Death Rate ([6]; 600 mg/kg): 0%; Death Rate ([6]; 750 mg/kg): 67%; Death Rate ([6]; 900 mg/kg): 83%; symptoms observed ([6]; high dose, one hour after the experiment): slow movement and a decrease in aggressiveness; LD50 at 7 days [7]: > 2000 mg/kg; AUC(0-t) ([8]; SD, rat, plasma, po, 500 mg/kg, single oral dose 500 mg/kg, n = 6, read-out: AUClast (area under the concentration-time curve from t = 0 to the last time)): 88020 ± 660 ng·h/mL; Cmax [8, 15]: 8180 ± 660 ng/mL; MRT [8, 15]: 9.48 ± 0.48 h; Tmax ([8]; SD, rat, plasma, single oral dose 500 mg/kg, n = 6, read-out: Tmax (time to reach peak concentration)): 10 ± 2.19 h; half-life ([8]; SD, rat, plasma, single oral dose 500 mg/kg, n = 6, read-out: t1/2 (elimination half-life) (converted)): 2.19 ± 0.71 h; CL [8, 16]: 92.9307 ± 16.544 mL/min/kg; Vz [8, 16]: 18,290.17 ± 9453.59 mL/kg; AUClast (area under the concentration-time curve from t = 0 to the last time) ([8]; single oral dose 500 mg/kg, n = 6, 500 mg/kg): 90210 ± 15680 ng·h/mL; elimination half-life compared with oleanolic acid ([8]; oleanolic acid data ref 27): longer elimination half-life than its parent compound, oleanolic acid; stability in plasma biomatrix and processed samples ([9]; freezing and thawing cycles, room temperature 24 h): stable; concentration relative to the initial concentration ([9]; methanol solutions, room temperature for 24 h): 97.46% to 100.17%; anti-HBV activity IC50 [10]: 3.13 µg/mL; inhibition of the rebound of the viral replication rate, compared with lamivudine [10]: superior to the positive drug (Lamivudine); inhibition rate of the secretion of HBsAg [10]: 90.52% ± 1.78%; reduction rate of the secretion of HBeAg [10]: 42.31% ± 3.53%
